Measurements taken from ChEMBL document CHEMBL1212797, “Miltefosine efficiently eliminates Leishmania major amastigotes from infected murine dendritic cells without altering their immune functions” (Antimicrob Agents Chemother, 2010).
Activity calls are given as the source filed them. The calls are words filed in the database; no cut-off is given here.

Legend:
[1] = Induction of apoptosis in C57BL/6 mouse dendritic cells assessed as early apoptotic cells at 5 uM after 18 hrs using annexin V-propidium iodide and annexin V staining by flow cytometry; type: cell-based
dendritic [2] = experiment: Immunomodulatory effect in Leishmania major uninfected C57BL/6 mouse bone marrow dendritic cells assessed as expression of MHC-2 at 5 to 50 uM after 18 hrs by flow cytometry; type: functional, cell-based
[3] = Induction of apoptosis in C57BL/6 mouse dendritic cells assessed as late apoptotic cells at 5 uM after 72 hrs using annexin V-propidium iodide and annexin V staining by flow cytometry; type: cell-based
dendritic [4] = experiment: Immunomodulatory effect in Leishmania major infected C57BL/6 mouse dendritic cells assessed as IL-10 production after 18 hrs by ELISA; type: functional, cell-based
dendritic [5] = experiment: Immunomodulatory effect in Leishmania major Leishmania major infected sC57BL/6 mouse bone marrow dendritic cells assessed as MHC-2 expression at 5 to 50 uM after 18 hrs by flow cytometry; type: functional, cell-based; details: C57BL/6
dendritic [6] = experiment: Immunomodulatory effect in Leishmania major uninfected C57BL/6 mouse bone marrow dendritic cells assessed as CD54 expression at 5 to 50 uM after 18 hrs by flow cytometry; type: functional, cell-based
dendritic [7] = experiment: Immunomodulatory effect in Leishmania major Leishmania major infected sC57BL/6 mouse bone marrow dendritic cells assessed as CD40 expression at 5 to 50 uM after 18 hrs by flow cytometry; type: functional, cell-based; details: C57BL/6
Homo sapiens = species: Homo sapiens; experiment: Plasma concentration in leishmaniasis patient during last week of 4-week treatment course; type: ADME, organism-based; details: in vivo
Mus musculus [8] = experiment: Immunomodulatory effect in Leishmania major infected C57BL/6 mouse assessed as levels of CD11c+ and MHC-2+ in dendritic cells at 200 ug administered topically measured after 48 hrs by FACS method; type: functional, organism-based
[9] = Induction of apoptosis in C57BL/6 mouse dendritic cells assessed as necrotic cells at 5 uM after 18 hrs using annexin V-propidium iodide and annexin V staining by flow cytometry; type: cell-based
[10] = Induction of apoptosis in C57BL/6 mouse dendritic cells assessed as early apoptotic cells at 25 uM after 18 hrs using annexin V-propidium iodide and annexin V staining by flow cytometry; type: cell-based
[11] = Induction of apoptosis in C57BL/6 mouse dendritic cells assessed as late apoptotic cells at 5 uM after 18 hrs using annexin V-propidium iodide and annexin V staining by flow cytometry; type: cell-based
Mus musculus [12] = experiment: Immunomodulatory effect in Leishmania major infected C57BL/6 mouse assessed as levels of CD11c+ and MHC-2+ in dendritic cells at 20 ug administered topically measured after 48 hrs by FACS method; type: functional, organism-based
[13] = Induction of apoptosis in C57BL/6 mouse dendritic cells assessed as viable cells at 50 uM after 18 hrs using annexin V-propidium iodide and annexin V staining by flow cytometry; type: cell-based; details: read-out: Activity
[14] = Induction of apoptosis in C57BL/6 mouse dendritic cells assessed as necrotic cells at 5 uM after 72 hrs using annexin V-propidium iodide and annexin V staining by flow cytometry; type: cell-based
[15] = Induction of apoptosis in C57BL/6 mouse dendritic cells assessed as viable cells at 5 uM after 18 hrs using annexin V-propidium iodide and annexin V staining by flow cytometry; type: cell-based; details: read-out: Activity
dendritic [16] = experiment: Immunomodulatory effect in uninfected C57BL/6 mouse dendritic cells assessed as IL-12p70 production after 18 hrs by ELISA; type: functional, cell-based
Leishmania major = experiment: Antileishmenia activity against Leishmania major amastigotes infected in C57BL/6 mouse dendritic cells assessed as decrease in intracellular parasite amastigotes level at 50 uM by light microscopy; type: functional, organism-based
dendritic [17] = experiment: Induction of nitric oxide release in Leishmania major amastigotes infected C57BL/6 mouse dendritic cells assessed as nitrite production after 72 hrs; type: functional, cell-based
dendritic [18] = experiment: Immunomodulatory effect in uninfected C57BL/6 mouse dendritic cells assessed as TNF-alpha production after 18 hrs by ELISA; type: functional, cell-based
[19] = Induction of apoptosis in C57BL/6 mouse dendritic cell assessed as early apoptotic cells at 50uM after 18 hrs using annexin V-propidium iodide staining by flow cytometry; type: cell-based
[20] = Induction of apoptosis in C57BL/6 mouse dendritic cells assessed as late apoptotic cells at 50 uM after 72 hrs using annexin V-propidium iodide and annexin V staining by flow cytometry; type: cell-based
dendritic [21] = experiment: Immunomodulatory effect in Leishmania major uninfected C57BL/6 mouse bone marrow dendritic cells assessed as CD86 expression at 5 to 50 uM after 18 hrs by flow cytometry; type: functional, cell-based
[22] = Induction of apoptosis in C57BL/6 mouse dendritic cells assessed as necrotic cells at 25 uM after 18 hrs using annexin V-propidium iodide and annexin V staining by flow cytometry; type: cell-based
[23] = Induction of apoptosis in C57BL/6 mouse dendritic cells assessed as viable cells at 50 uM after 72 hrs using annexin V-propidium iodide and annexin V staining by flow cytometry; type: cell-based; details: read-out: Activity
dendritic [24] = experiment: Immunomodulatory effect in uninfected C57BL/6 mouse dendritic cells assessed as IL-10 production after 18 hrs by ELISA; type: functional, cell-based
[25] = Induction of apoptosis in C57BL/6 mouse dendritic cells assessed as late apoptotic cells at 25 uM after 72 hrs using annexin V-propidium iodide and annexin V staining by flow cytometry; type: cell-based
[26] = Induction of apoptosis in C57BL/6 mouse dendritic cells assessed as necrotic cells at 50 uM after 72 hrs using annexin V-propidium iodide and annexin V staining by flow cytometry; type: cell-based
dendritic [27] = experiment: Immunomodulatory effect in Leishmania major infected C57BL/6 mouse dendritic cells assessed as IL-12p70 production after 18 hrs by ELISA; type: functional, cell-based
[28] = Induction of apoptosis in C57BL/6 mouse dendritic cells assessed as late apoptotic cells at 50 uM after 18 hrs using annexin V-propidium iodide and annexin V staining by flow cytometry; type: cell-based
dendritic [29] = experiment: Immunomodulatory effect in Leishmania major uninfected C57BL/6 mouse bone marrow dendritic cells assessed as CD40 expression at 5 to 50 uM after 18 hrs by flow cytometry; type: functional, cell-based
dendritic [30] = experiment: Immunomodulatory effect in Leishmania major Leishmania major infected sC57BL/6 mouse bone marrow dendritic cells assessed as CD86 expression at 5 to 50 uM after 18 hrs by flow cytometry; type: functional, cell-based; details: C57BL/6
dendritic [31] = experiment: Immunomodulatory effect in Leishmania major Leishmania major infected sC57BL/6 mouse bone marrow dendritic cells assessed as CD54 expression at 5 to 50 uM after 18 hrs by flow cytometry; type: functional, cell-based; details: C57BL/6
dendritic [32] = experiment: Immunomodulatory effect in Leishmania major infected C57BL/6 mouse dendritic cells assessed as IL-12p40 production after 18 hrs by ELISA; type: functional, cell-based
[33] = Induction of apoptosis in C57BL/6 mouse dendritic cells assessed as early apoptotic cells at 5 uM after 72 hrs using annexin V-propidium iodide and annexin V staining by flow cytometry; type: cell-based
[34] = Induction of apoptosis in C57BL/6 mouse dendritic cells assessed as necrotic cells at 50 uM after 18 hrs using annexin V-propidium iodide and annexin V staining by flow cytometry; type: cell-based
dendritic [35] = experiment: Effect on antigen specific CD8+ T cells expansion by Leishmania major amastigotes infected C57BL/6 mouse dendritic cells assessed as increase in [3H]thymidine incorporation at 50 uM after 72 hrs; type: functional, cell-based
[36] = Induction of apoptosis in C57BL/6 mouse dendritic cells assessed as early apoptotic cells at 50 uM after 18 hrs using annexin V-propidium iodide and annexin V staining by flow cytometry; type: cell-based
[37] = Induction of apoptosis in C57BL/6 mouse dendritic cells assessed as necrotic cells at 25 uM after 72 hrs using annexin V-propidium iodide and annexin V staining by flow cytometry; type: cell-based
[38] = Induction of apoptosis in C57BL/6 mouse dendritic cells assessed as viable cells at 25 uM after 72 hrs using annexin V-propidium iodide and annexin V staining by flow cytometry; type: cell-based; details: read-out: Activity
[39] = Induction of apoptosis in C57BL/6 mouse dendritic cells assessed as […] viable cells at 25 uM after 18 hrs using annexin V-propidium iodide and annexin V staining by flow cytometry; type: cell-based; details: read-out: Activity
[40] = Induction of apoptosis in C57BL/6 mouse dendritic cells assessed as early apoptotic cells at 50 uM after 72 hrs using annexin V-propidium iodide and annexin V staining by flow cytometry; type: cell-based
[41] = Induction of apoptosis in C57BL/6 mouse dendritic cells assessed as late apoptotic cells at 25 uM after 18 hrs using annexin V-propidium iodide and annexin V staining by flow cytometry; type: cell-based
dendritic [42] = experiment: Immunomodulatory effect in uninfected C57BL/6 mouse dendritic cells assessed as IL-12p40 production after 18 hrs by ELISA; type: functional, cell-based
[43] = Cytotoxicity against C57BL/6 mouse immature bone marrow-derived dendritic cells assessed as reduction of cell survival at >100 uM after 48 hrs by propidium iodide exclusion staining based flow cytometry
dendritic [44] = experiment: Effect on antigen specific CD4+ T cells expansion by Leishmania major amastigotes infected C57BL/6 mouse dendritic cells assessed as increase in [3H]thymidine incorporation at 50 uM after 72 hrs; type: functional, cell-based
dendritic [45] = experiment: Immunomodulatory effect in Leishmania major infected C57BL/6 mouse dendritic cells assessed as TNF-alpha production after 18 hrs by ELISA; type: functional, cell-based
[46] = Cytotoxicity against C57BL/6 mouse immature bone marrow-derived dendritic cells at 5 uM after 72 to 96 hrs by propidium iodide exclusion staining based flow cytometry; type: cell-based
[47] = Induction of apoptosis in C57BL/6 mouse dendritic cells assessed as viable cells at 5 uM after 72 hrs using annexin V-propidium iodide and annexin V staining by flow cytometry; type: cell-based; details: read-out: Activity

With `CCCCCCCCCCCCCCCCOP(=O)([O-])OCC[N+](C)(C)C` [MILTEFOSINE] as the compound, how does the Activity [1] read?
The Activity was 20.7%.

What about the Activity (dendritic [2]) of the same compound?
The Activity was “inactive”.

What about the Activity [3] of the same compound?
Its Activity is 35.67%.

What about the Activity (dendritic [4]) of the same compound?
The Activity was “inactive”.

And the Activity (dendritic [5])?
Its Activity is “inactive”.

And the Activity (dendritic [6])?
The Activity was “inactive”.

And the Activity (dendritic [7])?
The Activity was “inactive”.

And the Cp (Homo sapiens)?
The Cp was 30800 ng/mL.

And the Activity (Mus musculus [8])?
Its Activity is “inactive”.

What about the Activity [9] of the same compound?
The Activity was 3.91%.

What about the Activity [10] of the same compound?
The Activity was 19.91%.

And the Activity [11]?
The Activity was 11.41%.

What about the Activity (Mus musculus [12]) of the same compound?
Its Activity is “inactive”.

And the viability at 18 h, 50 µM [13]?
Its viability at 18 h, 50 µM is 51.7%.

What about the Activity [14] of the same compound?
The Activity was 5.16%.

What about the viability at 18 h, 5 µM [15] of the same compound?
The viability at 18 h, 5 µM was 84%.

And the Activity (dendritic [16])?
The Activity was “inactive”.

And the inhibition (Leishmania major)?
Its inhibition is “Dose-dependent effect”.

What about the Activity (dendritic [17]) of the same compound?
The Activity was “inactive”.

What about the Activity (dendritic [18]) of the same compound?
Its Activity is “inactive”.

What about the Activity [19] of the same compound?
The Activity was 43.18%.

And the Activity [20]?
Its Activity is 54.56%.

What about the Activity (dendritic [21]) of the same compound?
Its Activity is “inactive”.

What about the Activity [22] of the same compound?
Its Activity is 5.83%.

And the viability at 72 h, 50 µM [23]?
The viability at 72 h, 50 µM was 17.7%.

And the Activity (dendritic [24])?
The Activity was “inactive”.

And the Activity [25]?
Its Activity is 22.72%.

And the Activity [26]?
Its Activity is 6.56%.

And the Activity (dendritic [27])?
Its Activity is “inactive”.

What about the Activity [28] of the same compound?
The Activity was 18.57%.

And the Activity (dendritic [29])?
The Activity was “inactive”.

What about the Activity (dendritic [30]) of the same compound?
The Activity was “inactive”.

And the Activity (dendritic [31])?
Its Activity is “inactive”.

And the Activity (dendritic [32])?
The Activity was “inactive”.

What about the Activity [33] of the same compound?
Its Activity is 23.15%.

And the Activity [34]?
Its Activity is 6.6%.

And the Activity (dendritic [35])?
The Activity was “inactive”.

What about the Activity [36] of the same compound?
The Activity was 23.15%.

What about the Activity [37] of the same compound?
Its Activity is 6.2%.

What about the viability at 72 h, 25 µM [38] of the same compound?
Its viability at 72 h, 25 µM is 28.9%.

And the viability at 18 h, 25 µM [39]?
Its viability at 18 h, 25 µM is 58.4%.

What about the Activity [40] of the same compound?
Its Activity is 21.16%.

What about the Activity [41] of the same compound?
Its Activity is 15.89%.

What about the Activity (dendritic [42]) of the same compound?
The Activity was “inactive”.

What about the Activity [43] of the same compound?
Its Activity is “Toxic”.

And the Activity (dendritic [44])?
The Activity was “inactive”.

What about the Activity (dendritic [45]) of the same compound?
The Activity was “inactive”.

And the Activity [46]?
The Activity was “Active”.

And the viability at 72 h, 5 µM [47]?
Its viability at 72 h, 5 µM is 36%.
